Results on one substance are retold here after article PMC8457056, “Remodeling of the Fibrillation Pathway of α‐Synuclein by Interaction with Antimicrobial Peptide LL‐III” (Chemistry (Weinheim an Der Bergstrasse, Germany), 2021).

One data set has as its system α‐Syn. The data set is described as follows: fraction of complexed α-Syn calculated from Kb. The following applies: 100 μM α-Syn, calculated from K b. It counts as binding, human. As to the method: From the magnitude of K b, the fraction of complexed α‐Syn in the microscopy experiments could be calculated (Figure S5). For 100 μM α‐Syn, the fraction of complexed α‐Syn, θ, in the presence of 50 μM LL‐III amounts to about 0.3. […] This is likely due to the ability of the peptide to interact with one or two α‐Syn molecules within the droplets. The interaction is expected to occur mainly via the interaction of the positively charged (+6) and hydrophobic groups of LL‐III with the negatively charged C‐terminus (−12) and hydrophobic NAC region of α‐Syn, respectively. […] In the presence of 200 μM and 500 μM LL‐III, the θ‐values are 0.70 and 0.90, respectively.
Figure S4. Binding isotherm obtained by means of Trp steady-state fluorescence anisotropy. The experiment was performed by titrating a 5 µM solution of LL-III with a solution of α-Syn in the range 0-50 µM. The red line represents the best fit according to a 1:1 binding model. The experiments were performed in 20 mM sodium acetate buffer, pH 5.0, at 25 °C.
Figure S5. Plot of the fraction of bound α -Syn as a function of the total peptide concentration. The fraction of bound α -Syn was calculated according to the concentration used in the phase- contrast light microscopy experiments reported in Figu re 1 B of the main text: 100 µ M α-Syn and 50 µM (grey circle), 200 µM (red circle) and 500 µ M (blue circle) of LL-III. […]

Data set [1] can be described thus: circular dichroism spectroscopy of LL-III. It is filed as physicochemical. The following applies: 300 μM LL-III; 20 mM sodium acetate, pH 5.0, 25 °C; minimum around 195 nm. As to the method: Figure 2 A) Binding isotherm obtained by means of steady‐state fluorescence anisotropy measurements. The experiment was performed by titrating a 4 μM solution of carboxyfluorescein‐labeled LL‐III with a solution of α‐Syn in the range 0–100 μM. The red line represents the best fit according to a 1 : 1 binding model.[29] The fluorophore was covalently attached to the N‐terminus of the peptide. B) Circular dichroism (CD) spectra of LL‐III (black solid line), α‐Syn (red solid line,) and of a mixture of LL‐III and α‐Syn (blue solid line) recorded at day 0. Shown are also spectra of the LL‐III/α‐Syn mixture recorded after 5 days (dashed blue line) and after 10 days (dotted blue lines). Here, the concentration of LL‐III was 300 μM, and the concentration of α‐Syn was 30 μM. […]
Next, by means of circular dichroism (CD) spectroscopy, we explored the effect of LLPS formation and LL‐III partitioning on the conformation of the protein. […] In support of this conclusion, we note that the spectrum of the mixture is superimposable with the sum of the spectra of LL‐III and α‐Syn, which were recorded separately (Figure S6). The time evolution of the CD spectrum of the LL‐III/α‐Syn mixture was also recorded after 5 and 10 days (Figure 2B). […]
µM) and following the anisotropy changes of the Trp residue. […] The anisotropy was evaluated at 354 nm which corresponds to the maximum of emission of the free peptide. […]

Turning to NH2-VNWKKIL GKIIKVVK -CONH2 [LL‐III], the “fraction of complexed α‐Syn, θ” value in the data set on α‐Syn (50 μM LL-III) is “about 0.3”; in the data set with α‐Syn (200 μM LL-III), 0.70; with α‐Syn (500 μM LL-III), 0.90. Besides, in data set [1], the “conformation (CD)” value is recorded as “random‐coiled conformation in solution”.
